Results reported in US10899709B2, “Novel-alkynyl-substituted 3-phenylpyrrolidine-2,4-diones and use thereof as herbicides” (BAYER CROPSCIENCE AKTIENGESELLSCHAFT, priority 2015, dated 2021).

What was measured:
Format in all cases: in vivo
Alopecurus myosuroides [1] = assay: Post-emergence herbicidal effect; details: visual assessment after about 3 weeks
Method: (§1) Seeds of monocotyledonous and dicotyledonous weed and crop plants are laid out in sandy loam in wood-fibre pots, covered with soil and cultivated in a greenhouse under good growth conditions. 2 to 3 weeks after sowing, the test plants are treated at the one-leaf stage. The compounds according to the invention, formulated in the form of wettable powders (WP) or as emulsion concentrates (EC), are then sprayed as aqueous suspension or emulsion at a water application rate of 600 to 800 l/ha (converted) with the addition of 0.2% of wetting agent onto the green parts of the plants. After the test plants have been left to stand in the greenhouse under optimal growth conditions for about 3 weeks, the action of the preparations is assessed visually in comparison to untreated controls (herbicidal action in percent (%): 100% activity=the plants have died, 0% activity=like control plants).

Setaria viridis [2] = assay: Post-emergence herbicidal effect; details: visual assessment after about 3 weeks
Method: as §1

Echinochloa crus-galli [3] = assay: Post-emergence herbicidal effect; details: visual assessment after about 3 weeks
Method: as §1

Lolium multiflorum [4] = assay: Post-emergence herbicidal effect; details: visual assessment after about 3 weeks
Method: as §1

Alopecurus myosuroides [5] = assay: Pre-emergence herbicidal effect; details: visual score after 3 weeks
Source text: (§2) Seeds of monocotyledonous and dicotyledonous weed plants and crop plants are laid out in wood-fibre pots in sandy loam and covered with soil. The compounds according to the invention formulated in the form of wettable powders (WP) or as emulsion concentrates (EC) are then applied as aqueous suspension or emulsion at a water application rate of 600 to 800 l/ha (converted) with the addition of 0.2% wetting agent to the surface of the covering soil. After the treatment, the pots are placed in a greenhouse and kept under good growth conditions for the trial plants. The damage to the test plants is scored visually after a test period of 3 weeks by comparison with untreated controls (herbicidal activity in percent (%): 100% activity=the plants have died, 0% activity=like control plants).

Setaria viridis [6] = assay: Pre-emergence herbicidal effect; details: visual score after 3 weeks
Source text: as §2

Avena fatua [7] = assay: Pre-emergence herbicidal effect; details: visual score after 3 weeks
Source text: as §2

Echinochloa crus-galli [8] = assay: Pre-emergence herbicidal effect; details: visual score after 3 weeks
Source text: as §2

Lolium multiflorum [9] = assay: Pre-emergence herbicidal effect; details: visual score after 3 weeks
Source text: as §2

Avena fatua [10] = assay: Post-emergence herbicidal effect; details: visual assessment after about 3 weeks
Method: as §1

With `CC#Cc1cc(C)c(C2=C(OC(=O)C(C)C)C3(CCC(COC)C3)NC2=O)c(CC)c1` (stereo not shown) [Example Ia-6] the “Post-emergence effectiveness ALOMY” value (Alopecurus myosuroides [1]; 80 g/ha) was 100%, the “Post-emergence effectiveness SETVI” value (Setaria viridis [2]; 80 g/ha) was 100% and the “Post-emergence effectiveness ECHCG” value (Echinochloa crus-galli [3]; 20 g/ha) was 100%. For the same molecule, the “Post-emergence effectiveness ECHCG” value (Echinochloa crus-galli [3]; 80 g/ha) was 100%, the “Post-emergence effectiveness LOLMU” value (Lolium multiflorum [4]; 20 g/ha) was 90% and the “Post-emergence effectiveness LOLMU” value (Lolium multiflorum [4]; 80 g/ha) was 90%. For the same molecule, the “Pre-emergence effectiveness ALOMY” value (Alopecurus myosuroides [5]; 80 g/ha) was 100%, the “Pre-emergence effectiveness ALOMY” value (Alopecurus myosuroides [5]; 320 g/ha) was 100% and the “Pre-emergence effectiveness SETVI” value (Setaria viridis [6]; 80 g/ha) was 100%. The “Pre-emergence effectiveness SETVI” value (Setaria viridis [6]; 320 g/ha) was 100%, the “Pre-emergence effectiveness AVEFA” value (Avena fatua [7]; 80 g/ha) was 90% and the “Pre-emergence effectiveness AVEFA” value (Avena fatua [7]; 320 g/ha) was 90%. For the same molecule, the “Pre-emergence effectiveness ECHCG” value (Echinochloa crus-galli [8]; 80 g/ha) was 100%, the “Pre-emergence effectiveness ECHCG” value (Echinochloa crus-galli [8]; 320 g/ha) was 100% and the “Pre-emergence effectiveness LOLMU” value (Lolium multiflorum [9]; 80 g/ha) was 100%. For the same molecule, the “Pre-emergence effectiveness LOLMU” value (Lolium multiflorum [9]; 320 g/ha) was 100%.
In the case of `CC#Cc1cc(C)c(C2=C(OC(=O)C(C)C)C3(CCC(COC)C3)NC2=O)c(CC)c1` (stereo not shown) [Example Ia-7], the “Post-emergence effectiveness ALOMY” value (Alopecurus myosuroides [1]; 80 g/ha) is reported as 100%, the “Post-emergence effectiveness SETVI” value (Setaria viridis [2]; 80 g/ha) is reported as 80% and the “Post-emergence effectiveness ECHCG” value (Echinochloa crus-galli [3]; 20 g/ha) is reported as 90%. The “Post-emergence effectiveness ECHCG” value (Echinochloa crus-galli [3]; 80 g/ha) was 100%, the “Post-emergence effectiveness LOLMU” value (Lolium multiflorum [4]; 80 g/ha) was 100% and the “Pre-emergence effectiveness ALOMY” value (Alopecurus myosuroides [5]; 80 g/ha) was 100%. For the same molecule, the “Pre-emergence effectiveness SETVI” value (Setaria viridis [6]; 80 g/ha) was 100%, the “Pre-emergence effectiveness ECHCG” value (Echinochloa crus-galli [8]; 80 g/ha) was 100% and the “Pre-emergence effectiveness LOLMU” value (Lolium multiflorum [9]; 80 g/ha) was 100%.
`CC#Cc1cc(C)c(C2=C(OC(=O)C(C)C)C3(CCC(COC)C3)NC2=O)c(CC)c1` (stereo not shown) [Example Ia-9] was tested, and the “Post-emergence effectiveness ALOMY” value (Alopecurus myosuroides [1]; 20 g/ha) was 100%, the “Post-emergence effectiveness ALOMY” value (Alopecurus myosuroides [1]; 80 g/ha) was 100% and the “Post-emergence effectiveness SETVI” value (Setaria viridis [2]; 20 g/ha) was 100%. The “Post-emergence effectiveness SETVI” value (Setaria viridis [2]; 80 g/ha) was 100%, the “Post-emergence effectiveness AVEFA” value (Avena fatua [10]; 20 g/ha) was 90% and the “Post-emergence effectiveness AVEFA” value (Avena fatua [10]; 80 g/ha) was 90%. For the same molecule, the “Post-emergence effectiveness ECHCG” value (Echinochloa crus-galli [3]; 20 g/ha) was 100%, the “Post-emergence effectiveness ECHCG” value (Echinochloa crus-galli [3]; 80 g/ha) was 100% and the “Post-emergence effectiveness LOLMU” value (Lolium multiflorum [4]; 20 g/ha) was 90%. For the same molecule, the “Post-emergence effectiveness LOLMU” value (Lolium multiflorum [4]; 80 g/ha) was 90%.
With `CCc1cc(C#CC2CC2)cc(C)c1C1=C(OC(=O)C(C)C)C2(CCC(COC)C2)NC1=O` (stereo not shown) [Example Ia-11] the “Post-emergence effectiveness ALOMY” value (Alopecurus myosuroides [1]; 80 g/ha) was 90%, the “Post-emergence effectiveness SETVI” value (Setaria viridis [2]; 20 g/ha) was 80% and the “Post-emergence effectiveness SETVI” value (Setaria viridis [2]; 80 g/ha) was 90%. The “Post-emergence effectiveness ECHCG” value (Echinochloa crus-galli [3]; 20 g/ha) was 100%, the “Post-emergence effectiveness ECHCG” value (Echinochloa crus-galli [3]; 80 g/ha) was 100% and the “Post-emergence effectiveness LOLMU” value (Lolium multiflorum [4]; 80 g/ha) was 90%. The “Pre-emergence effectiveness ALOMY” value (Alopecurus myosuroides [5]; 80 g/ha) was 100%, the “Pre-emergence effectiveness ALOMY” value (Alopecurus myosuroides [5]; 320 g/ha) was 100% and the “Pre-emergence effectiveness SETVI” value (Setaria viridis [6]; 80 g/ha) was 100%. The “Pre-emergence effectiveness SETVI” value (Setaria viridis [6]; 320 g/ha) was 100%, the “Pre-emergence effectiveness AVEFA” value (Avena fatua [7]; 320 g/ha) was 80% and the “Pre-emergence effectiveness ECHCG” value (Echinochloa crus-galli [8]; 80 g/ha) was 100%. For the same molecule, the “Pre-emergence effectiveness ECHCG” value (Echinochloa crus-galli [8]; 320 g/ha) was 100%, the “Pre-emergence effectiveness LOLMU” value (Lolium multiflorum [9]; 80 g/ha) was 100% and the “Pre-emergence effectiveness LOLMU” value (Lolium multiflorum [9]; 320 g/ha) was 100%.
In the case of `CC#Cc1cc(CC)c(C2=C(OC(=O)C(C)C)C3(CCC(OCCOC)CC3)NC2=O)c(CC)c1` (stereo not shown) [Example Ia-13], the “Post-emergence effectiveness SETVI” value (Setaria viridis [2]; 80 g/ha) is reported as 80%, the “Post-emergence effectiveness ECHCG” value (Echinochloa crus-galli [3]; 20 g/ha) is reported as 80% and the “Post-emergence effectiveness ECHCG” value (Echinochloa crus-galli [3]; 80 g/ha) is reported as 100%. For the same molecule, the “Pre-emergence effectiveness ALOMY” value (Alopecurus myosuroides [5]; 80 g/ha) was 100%, the “Pre-emergence effectiveness ALOMY” value (Alopecurus myosuroides [5]; 320 g/ha) was 100% and the “Pre-emergence effectiveness SETVI” value (Setaria viridis [6]; 80 g/ha) was 100%. For the same molecule, the “Pre-emergence effectiveness SETVI” value (Setaria viridis [6]; 320 g/ha) was 100%, the “Pre-emergence effectiveness AVEFA” value (Avena fatua [7]; 80 g/ha) was 80% and the “Pre-emergence effectiveness AVEFA” value (Avena fatua [7]; 320 g/ha) was 100%. The “Pre-emergence effectiveness ECHCG” value (Echinochloa crus-galli [8]; 80 g/ha) was 100%, the “Pre-emergence effectiveness ECHCG” value (Echinochloa crus-galli [8]; 320 g/ha) was 100% and the “Pre-emergence effectiveness LOLMU” value (Lolium multiflorum [9]; 80 g/ha) was 100%. The “Pre-emergence effectiveness LOLMU” value (Lolium multiflorum [9]; 320 g/ha) was 100%.
For `CC#Cc1cc(C)c(C2=C(OS(C)(=O)=O)C3(CCC(COC)C3)NC2=O)c(CC)c1` (stereo not shown) [Example Ia-16], the “Pre-emergence effectiveness ALOMY” value (Alopecurus myosuroides [5]; 80 g/ha) was 90%, the “Pre-emergence effectiveness ALOMY” value (Alopecurus myosuroides [5]; 320 g/ha) was 90% and the “Pre-emergence effectiveness SETVI” value (Setaria viridis [6]; 80 g/ha) was 90%. For the same molecule, the “Pre-emergence effectiveness SETVI” value (Setaria viridis [6]; 320 g/ha) was 90%, the “Pre-emergence effectiveness ECHCG” value (Echinochloa crus-galli [8]; 80 g/ha) was 90% and the “Pre-emergence effectiveness ECHCG” value (Echinochloa crus-galli [8]; 320 g/ha) was 100%. For the same molecule, the “Pre-emergence effectiveness LOLMU” value (Lolium multiflorum [9]; 320 g/ha) was 90%.
